From patent US20040038958A1, “Topical treatment of skin diseases” (priority 2002, published 2004)
Entries after “also recorded” stand apart in the source; their conditions may differ.

Columns and labels:
[1] = tested on: macrophage inflammatory protein 2; test: MIP-2 in homogenized mouse ears after TDI challenge (ELISA); assay type: in vivo, BALB/c-mice; conditions: 24 h after TDI challenge, cilomilast 3%, diflorasone 0.05%; for concentration of macrophage inflammatory protein 2 in homogenized mouse ears: topical 2 h before challenge, AWD 12-281 1%; for MIP-2, mean inhibition (%) of the TDI induced synthesis: AWD 12-281 3%
Protocol: (§1) One part of the collected ears was fixed in 4% formaldehyde for histological section and stained with haematoxylin-eosin with respect to dermal thickness and granulocyte accumulation. These parameters were measured in 10 fields at 40 times magnification. The remaining tissue was shock-frozen and stored in liquid nitrogen immediately after sampling. For the determination of biochemical parameters, the mice ears were homogenized under liquid nitrogen. The homogenates were taken in 200 μl RPMI 1640 medium and the protease inhibitor Pefabloc® (1 mmol) was added and the samples were mixed intensively. After centrifugation (10000 g, 10 min, 4° C.), the supernatant was collected and the protein content was determined. The samples were stored at −80° C. until the cytokines were determined. Interleukin (IL) 4, IL-6 and MIP-2 were measured in the samples by ELISA using commercially available kits according to manufacturers instructions.

[2] = tested on: chronic obstructive pulmonary disease; conditions: Phase II/III clinical trials; Giembycz, 2001, Dyke & Montana, 2002; cited from earlier work
interleukin 4 = test: IL-4 in homogenized mouse ears after TDI challenge (ELISA); assay type: in vivo, BALB/c-mice; conditions: 24 h after TDI challenge, cilomilast 3%, diflorasone 0.05%; for concentration of interleukin 4 in homogenized mouse ears: topical 2 h before challenge, AWD 12-281 1%; for IL-4, mean inhibition (%) of the TDI induced synthesis: AWD 12-281 3%
Protocol: as §1

[3] = tested on: granulocyte influx in the dermis of mice ears; test: Histological examination of mouse ear skin after TDI challenge; assay type: in vivo, BALB/c-mice; conditions: mouse ear skin 24 h after TDI challenge; topical treatment
Protocol: as §1

mice sensitized to TDI = test: Mouse ear swelling test in mice sensitized to toluene-2,4-diisocyanate (TDI), topical application; assay type: in vivo, BALB/c-mice; conditions: for TDI-induced ear swelling: AWD 12-281 1%, cilomilast 3%, diflorasone 0.05%
Protocol: FIG. 6: Effect of PDE 4 inhibitors on TDI induced ear swelling in mice. […] After 1 h (grey bars) groups of mice were treated with 3% AWD 12-281, 10% cilomilast or left untreated (TDI). After 24 h, ear swelling was determined (black bars). […] Female BALB/c-mice were obtained from Charles River (Sulzfeld, Germany) at the age of 8 weeks (20 g body weight). All animals were healthy and were housed in groups of six mice per cage at 22° C. with a 12-h light/dark-cycle. Water and a standard diet (Altromin, […], Germany) were available ad libitum. After settling in for 1 week, the abdominal skin of the mice was shaved and depilated with Veet®. Subsequently, the horny layers of the abdominal skin were stripped off ten times with adhesive tapes. […] Before as well as 24 h after challenge, the ear thickness was measured with a cutimeter (model 7309, Mitutoyo, Neuss, Germany) The swelling was calculated by comparison of the values before challenge with 24 h after challenge. […] The other mice were equally distributed to the treatment groups (n=6) according to their swelling intensity, so that each group contained animals which had responded to varying extents. They had to rest until the ear thickness had reached almost a normal level after 7 days. To exclude residues of the allergen on the ears, the untreated right ears were used for the main experiment. One group of mice (n=6) was not sensitized and challenged. […] Two hours before TDI-challenge, the third and fourth group (each n=6) were treated with 20 μl (10 μl on both, the inner and outer surface) AWD 12-281 (1%=200 μg) or 20 μl cilomilast (3%=600 μg; each in acetone/DMSO 9:1) to the right ears. […] These mice were sacrificed by cervical dislocation 24 hours after TDI challenge and the ears were collected (see below). […] Five weeks after the first challenge, the animals treated with AWD 12-281 (1%) and cilomilast (3%) “therapeutically” were challenged again. Before challenge, one group was treated with AWD 12-281 (3%).

IL-4 = conditions: Griswold et al., 1998; cited from earlier work
interleukin 6 = test: IL-6 in homogenized mouse ears after TDI challenge (ELISA); assay type: in vivo, BALB/c-mice; conditions: 24 h after TDI challenge, cilomilast 3%, diflorasone 0.05%; for concentration of interleukin 6 in homogenized mouse ears: topical 2 h before challenge, AWD 12-281 1%; for IL-6, mean inhibition (%) of the TDI induced synthesis: AWD 12-281 3%
Protocol: as §1

[4] = single topical application 2 h before TDI challenge, 1, 5 and 24 h after challenge
[5] = topical 1 h after TDI challenge (therapeutic), 24 h after challenge

Row | MIP-2, mean inhibition (%) of the TDI induced synthesis [1] [%] | IL-4, mean inhibition (%) of the TDI induced synthesis (interleukin 4) [%] | IL-6, mean inhibition (%) of the TDI induced synthesis (interleukin 6) [%] | SMILES | concentration of macrophage inflammatory protein 2 in homogenized mouse ears [1] | concentration of macrophage inflammatory protein 2 in homogenized mouse ears ([1]; listed as Cilomilast) | lung function [2] | concentration of interleukin 4 in homogenized mouse ears (interleukin 4) | concentration of interleukin 4 in homogenized mouse ears (interleukin 4; listed as Cilomilast) | edema and influx of inflammatory cells (mainly granulocytes) [3] | TDI-induced ear swelling (mice sensitized to TDI; [4]) | TDI-induced ear swelling (mice sensitized to TDI; [5]) | TDI-induced ear swelling (mice sensitized to TDI; topical 1 h after TDI challenge (therapeutic), 24 h after challenge, listed as Cilomilast) | TDI induced ear swelling (mice sensitized to TDI; treated 1 h after 0.5% TDI, 3% AWD 12-281, 10% cilomilast, ear swelling after 24 h (FIG. 6)) | IL-4 in vivo (IL-4) | concentration of interleukin 6 in homogenized mouse ears (interleukin 6) | concentration of interleukin 6 in homogenized mouse ears (interleukin 6; listed as Cilomilast)
1 | 66 | 74 | 49 | COc1ccc([C@]2(C#N)CC[C@@H](C(=O)O)CC2)cc1OC1CCCC1 [cilomilast] | diminished the increase of the MIP-2 concentration significantly | reduced the concentration of all mediators significantly | clinically significant increase in lung function | inhibited the increase significantly | reduced the concentration of all mediators significantly | inhibited these inflammatory processes markedly | inhibited the TDI-induced swelling significantly at all measured times | lacks significant inhibitory effects; also recorded: failed to do so | no significant inhibition; also recorded: slight, but not significant reduction of the swelling | did not show a significant inhibitory effect | inhibit IL-4 in vivo | inhibited this response significantly | reduced the concentration of all mediators significantly
2 | 76 | 50 | 52 | CC(=O)OCC(=O)[C@@]1(OC(C)=O)[C@@H](C)C[C@H]2[C@@H]3C[C@H](F)C4=CC(=O)C=C[C@]4(C)[C@@]3(F)[C@@H](O)C[C@@]21C [diflorasone, reference compound] | reduced the concentration of all mediators significantly; also recorded: diminished the increase of the MIP-2 concentration significantly |  |  | reduced the concentration of all mediators significantly; also recorded: inhibited the increase significantly |  | inhibited these inflammatory processes markedly | inhibited the TDI-induced swelling significantly at all measured times | inhibited the TDI induced ear swelling significantly |  |  |  | reduced the concentration of all mediators significantly; also recorded: inhibited this response significantly | 
